Legend:
Assay type in all cases: biochemical
Settings in all cases: read-out: Activity of the protein kinase when treated with compound I-1 (% control)
MARK4 = MARK4 (Homo sapiens, UniProt Q96L34); assay: Protein kinase assay ([γ-32P] ATP), MARK4
Description: (§1) In another set of experiments, the activities of the compounds described herein against various protein kinases were determined according to the methods reported in Hastie et al., Nature Protocols, 2006, 1, 968-971.
(§2) Enzyme dilution buffer. This buffer consisted of 50 mM Tris-HCl, pH 7.5, 0.1 mM EGTA, 1 mg ml^−1 bovine serum albumin and 0.1% (vol/vol) 2-mercaptoethanol.
(§3) 10× concentrated assay buffer. An assay buffer of 500 mM Tris-HCl, pH 7.5, 1 mM EGTA, and 100 mM magnesium acetate was used for assay of a wide variety of protein kinases. In some experiments, other cofactors were included (e.g., calcium ions and calmodulin were included for assay of calcium-calmodulindependent protein kinases).
(§4) 1 mM [γ-^32P] ATP. The specific activity of the [γ-^32P] ATP solution was 1×10^5 to 1×10^6 c.p.m. per nmol depending on what was needed to produce an optimal signal/noise ratio. […] To measure the concentration of ATP, a sample of such a stock solution was diluted to 20 μM, and the absorbance of the diluted sample was measured at 259 nm. The absorbance of a 20-μM stock solution of ATP at 259 nm was about 0.31. […] ATP to produce a radioactivity of 1×10^5 to 1×10^6 c.p.m. per nmol. […]
(§5) 13) Measure radioactivity in the samples by Cerenkov counting (e.g., without liquid scintillation fluid) in a liquid scintillation counter using a “^32P program”. […]

ZAP70 = ZAP70 (Homo sapiens, UniProt P43403); assay: Protein kinase assay ([γ-32P] ATP), ZAP70
Description: as §1, §2, §3, §4, §5

TAO1 = TAO1 (Homo sapiens, UniProt Q7L7X3); assay: Protein kinase assay ([γ-32P] ATP), TAO1
Description: as §1, §2, §3, §4, §5

TBK1 = TBK1 (Homo sapiens, UniProt Q9UHD2); assay: Protein kinase assay ([γ-32P] ATP), TBK1
Description: as §1, §2, §3, §4, §5

SGK1 = SGK1 (Homo sapiens, UniProt O00141); assay: Protein kinase assay ([γ-32P] ATP), SGK1
Description: as §1, §2, §3, §4, §5

EPH-B2 = EPH-B2 (Homo sapiens, UniProt P29323); assay: Protein kinase assay ([γ-32P] ATP), EPH-B2
Description: as §1, §2, §3, §4, §5

TLK1 = TLK1 (Homo sapiens, UniProt Q9UKI8); assay: Protein kinase assay ([γ-32P] ATP), TLK1
Description: as §1, §2, §3, §4, §5

PAK2 = PAK2 (Homo sapiens, UniProt Q13177); assay: Protein kinase assay ([γ-32P] ATP), PAK2
Description: as §1, §2, §3, §4, §5

MLK1 = MLK1 (Homo sapiens, UniProt P80192); assay: Protein kinase assay ([γ-32P] ATP), MLK1
Description: as §1, §2, §3, §4, §5

MKK6 = MKK6 (Homo sapiens, UniProt P52564); assay: Protein kinase assay ([γ-32P] ATP), MKK6
Description: as §1, §2, §3, §4, §5

PDK1 = PDK1 (Homo sapiens, UniProt O15530); assay: Protein kinase assay ([γ-32P] ATP), PDK1
Description: as §1, §2, §3, §4, §5

PKCa = PKCa (Homo sapiens, UniProt P17252); assay: Protein kinase assay ([γ-32P] ATP), PKCa
Description: as §1, §2, §3, §4, §5

SYK = SYK (Homo sapiens, UniProt P43405); assay: Protein kinase assay ([γ-32P] ATP), SYK
Description: as §1, §2, §3, §4, §5

EPH-A4 = EPH-A4 (Homo sapiens, UniProt P54764); assay: Protein kinase assay ([γ-32P] ATP), EPH-A4
Description: as §1, §2, §3, §4, §5

TAK1 = TAK1 (Homo sapiens, UniProt O43318); assay: Protein kinase assay ([γ-32P] ATP), TAK1
Description: as §1, §2, §3, §4, §5

TSSK1 = TSSK1 (Homo sapiens, UniProt Q9BXA7); assay: Protein kinase assay ([γ-32P] ATP), TSSK1
Description: as §1, §2, §3, §4, §5

YES1 = YES1 (Homo sapiens, UniProt P07947); assay: Protein kinase assay ([γ-32P] ATP), YES1
Description: as §1, §2, §3, §4, §5

[1] = 0.1 μM of compound I-1, DMSO control = 100%
[2] = 1 μM of compound I-1, DMSO control = 100%

EPH-B2, sequence (P29323 19-1055): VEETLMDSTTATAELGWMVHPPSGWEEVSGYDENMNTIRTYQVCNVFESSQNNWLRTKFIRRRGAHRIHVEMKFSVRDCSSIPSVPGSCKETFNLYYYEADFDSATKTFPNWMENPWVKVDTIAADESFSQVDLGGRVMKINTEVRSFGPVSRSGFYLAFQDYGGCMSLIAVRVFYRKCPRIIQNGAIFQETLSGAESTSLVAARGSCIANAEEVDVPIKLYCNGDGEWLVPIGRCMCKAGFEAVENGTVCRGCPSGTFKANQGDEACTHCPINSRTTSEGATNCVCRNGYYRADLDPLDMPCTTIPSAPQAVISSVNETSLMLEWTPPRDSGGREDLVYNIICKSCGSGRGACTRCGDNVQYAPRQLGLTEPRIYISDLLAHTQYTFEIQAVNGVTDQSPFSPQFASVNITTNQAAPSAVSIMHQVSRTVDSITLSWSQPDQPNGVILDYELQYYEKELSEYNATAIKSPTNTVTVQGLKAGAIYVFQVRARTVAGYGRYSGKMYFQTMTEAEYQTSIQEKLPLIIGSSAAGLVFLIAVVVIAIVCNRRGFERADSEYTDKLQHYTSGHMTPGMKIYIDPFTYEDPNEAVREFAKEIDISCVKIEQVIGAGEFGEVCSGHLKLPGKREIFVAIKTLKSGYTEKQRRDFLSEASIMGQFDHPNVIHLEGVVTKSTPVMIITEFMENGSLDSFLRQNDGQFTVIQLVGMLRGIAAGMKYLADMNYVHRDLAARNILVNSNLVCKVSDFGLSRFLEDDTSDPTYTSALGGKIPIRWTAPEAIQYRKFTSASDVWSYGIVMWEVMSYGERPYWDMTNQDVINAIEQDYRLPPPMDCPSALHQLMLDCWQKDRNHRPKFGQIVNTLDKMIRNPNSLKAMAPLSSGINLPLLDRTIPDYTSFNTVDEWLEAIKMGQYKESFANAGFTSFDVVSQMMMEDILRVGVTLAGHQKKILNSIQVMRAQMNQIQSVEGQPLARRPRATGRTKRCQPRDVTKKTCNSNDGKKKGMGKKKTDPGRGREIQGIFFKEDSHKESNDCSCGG
PAK2, sequence (Q13177 whole entry): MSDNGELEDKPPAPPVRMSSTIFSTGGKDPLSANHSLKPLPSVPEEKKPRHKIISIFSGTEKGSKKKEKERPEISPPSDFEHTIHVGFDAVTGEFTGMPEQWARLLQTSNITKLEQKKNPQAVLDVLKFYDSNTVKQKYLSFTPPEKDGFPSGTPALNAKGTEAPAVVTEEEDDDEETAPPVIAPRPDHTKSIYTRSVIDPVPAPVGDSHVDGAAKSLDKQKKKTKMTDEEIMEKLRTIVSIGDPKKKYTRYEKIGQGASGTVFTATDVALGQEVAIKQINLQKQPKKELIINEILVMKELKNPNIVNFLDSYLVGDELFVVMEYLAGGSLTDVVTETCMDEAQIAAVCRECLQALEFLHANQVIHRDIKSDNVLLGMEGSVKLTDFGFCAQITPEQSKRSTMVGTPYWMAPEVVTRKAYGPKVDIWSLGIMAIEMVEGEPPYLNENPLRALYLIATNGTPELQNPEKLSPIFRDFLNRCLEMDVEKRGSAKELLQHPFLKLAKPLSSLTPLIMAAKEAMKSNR
MARK4, sequence (Q96L34 whole entry): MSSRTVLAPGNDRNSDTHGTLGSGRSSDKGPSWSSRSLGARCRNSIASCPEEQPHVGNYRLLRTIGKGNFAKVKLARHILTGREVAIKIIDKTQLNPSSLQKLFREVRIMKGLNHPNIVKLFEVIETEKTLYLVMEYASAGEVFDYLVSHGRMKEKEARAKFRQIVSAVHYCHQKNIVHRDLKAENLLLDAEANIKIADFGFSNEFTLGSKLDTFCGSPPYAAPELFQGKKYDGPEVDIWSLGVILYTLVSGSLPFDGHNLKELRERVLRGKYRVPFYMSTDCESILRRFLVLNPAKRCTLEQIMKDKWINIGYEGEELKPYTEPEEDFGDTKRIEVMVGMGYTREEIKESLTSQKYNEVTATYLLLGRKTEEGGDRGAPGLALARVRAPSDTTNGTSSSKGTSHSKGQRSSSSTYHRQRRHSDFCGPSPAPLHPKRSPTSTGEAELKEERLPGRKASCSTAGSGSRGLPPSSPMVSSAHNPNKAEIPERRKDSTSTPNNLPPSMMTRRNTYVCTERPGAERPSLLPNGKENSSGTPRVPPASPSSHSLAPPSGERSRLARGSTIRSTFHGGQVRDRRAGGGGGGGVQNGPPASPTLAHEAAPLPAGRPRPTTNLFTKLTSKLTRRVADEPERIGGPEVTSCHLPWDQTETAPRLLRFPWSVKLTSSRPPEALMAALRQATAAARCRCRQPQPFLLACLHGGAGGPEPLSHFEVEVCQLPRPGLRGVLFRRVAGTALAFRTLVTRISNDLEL
TAK1, sequence (O43318 1-303 limits assumed): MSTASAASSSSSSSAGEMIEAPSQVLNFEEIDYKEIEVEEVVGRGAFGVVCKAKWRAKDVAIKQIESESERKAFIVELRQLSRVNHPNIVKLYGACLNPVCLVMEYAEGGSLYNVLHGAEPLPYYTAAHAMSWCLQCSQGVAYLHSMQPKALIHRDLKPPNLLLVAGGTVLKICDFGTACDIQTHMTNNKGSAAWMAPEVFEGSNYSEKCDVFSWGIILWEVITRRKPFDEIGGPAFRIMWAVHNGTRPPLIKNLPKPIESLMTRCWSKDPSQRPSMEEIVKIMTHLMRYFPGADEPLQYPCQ
TBK1, sequence (Q9UHD2 whole entry, species assumed): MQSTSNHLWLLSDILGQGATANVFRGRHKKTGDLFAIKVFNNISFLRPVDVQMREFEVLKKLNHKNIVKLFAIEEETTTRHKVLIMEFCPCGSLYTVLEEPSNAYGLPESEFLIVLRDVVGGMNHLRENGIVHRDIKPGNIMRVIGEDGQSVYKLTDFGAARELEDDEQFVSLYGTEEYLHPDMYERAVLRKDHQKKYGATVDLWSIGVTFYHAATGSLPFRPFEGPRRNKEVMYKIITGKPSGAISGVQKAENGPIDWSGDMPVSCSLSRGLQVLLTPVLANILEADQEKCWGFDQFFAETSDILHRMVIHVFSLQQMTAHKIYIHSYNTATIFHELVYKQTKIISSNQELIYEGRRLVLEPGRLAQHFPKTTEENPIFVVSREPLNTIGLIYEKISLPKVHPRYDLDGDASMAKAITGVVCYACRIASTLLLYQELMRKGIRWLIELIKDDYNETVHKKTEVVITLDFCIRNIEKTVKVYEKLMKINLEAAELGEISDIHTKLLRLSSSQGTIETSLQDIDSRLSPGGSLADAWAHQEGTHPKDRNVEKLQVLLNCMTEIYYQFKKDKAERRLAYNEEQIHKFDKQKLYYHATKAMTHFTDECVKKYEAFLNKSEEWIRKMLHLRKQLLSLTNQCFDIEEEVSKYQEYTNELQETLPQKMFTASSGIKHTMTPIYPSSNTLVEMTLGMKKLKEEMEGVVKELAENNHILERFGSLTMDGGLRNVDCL
SGK1, sequence (O00141 whole entry, species assumed): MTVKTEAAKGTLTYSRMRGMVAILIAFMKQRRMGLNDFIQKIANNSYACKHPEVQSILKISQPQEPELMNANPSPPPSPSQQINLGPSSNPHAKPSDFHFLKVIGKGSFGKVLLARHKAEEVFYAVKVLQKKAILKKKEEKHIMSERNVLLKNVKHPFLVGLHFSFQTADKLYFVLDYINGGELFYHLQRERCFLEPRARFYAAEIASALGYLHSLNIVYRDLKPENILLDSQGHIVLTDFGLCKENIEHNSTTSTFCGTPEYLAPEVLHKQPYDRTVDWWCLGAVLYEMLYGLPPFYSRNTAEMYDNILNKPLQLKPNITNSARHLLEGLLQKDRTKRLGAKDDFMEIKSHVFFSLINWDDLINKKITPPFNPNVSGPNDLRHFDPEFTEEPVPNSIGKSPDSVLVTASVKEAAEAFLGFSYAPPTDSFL
MLK1, sequence (P80192 whole entry): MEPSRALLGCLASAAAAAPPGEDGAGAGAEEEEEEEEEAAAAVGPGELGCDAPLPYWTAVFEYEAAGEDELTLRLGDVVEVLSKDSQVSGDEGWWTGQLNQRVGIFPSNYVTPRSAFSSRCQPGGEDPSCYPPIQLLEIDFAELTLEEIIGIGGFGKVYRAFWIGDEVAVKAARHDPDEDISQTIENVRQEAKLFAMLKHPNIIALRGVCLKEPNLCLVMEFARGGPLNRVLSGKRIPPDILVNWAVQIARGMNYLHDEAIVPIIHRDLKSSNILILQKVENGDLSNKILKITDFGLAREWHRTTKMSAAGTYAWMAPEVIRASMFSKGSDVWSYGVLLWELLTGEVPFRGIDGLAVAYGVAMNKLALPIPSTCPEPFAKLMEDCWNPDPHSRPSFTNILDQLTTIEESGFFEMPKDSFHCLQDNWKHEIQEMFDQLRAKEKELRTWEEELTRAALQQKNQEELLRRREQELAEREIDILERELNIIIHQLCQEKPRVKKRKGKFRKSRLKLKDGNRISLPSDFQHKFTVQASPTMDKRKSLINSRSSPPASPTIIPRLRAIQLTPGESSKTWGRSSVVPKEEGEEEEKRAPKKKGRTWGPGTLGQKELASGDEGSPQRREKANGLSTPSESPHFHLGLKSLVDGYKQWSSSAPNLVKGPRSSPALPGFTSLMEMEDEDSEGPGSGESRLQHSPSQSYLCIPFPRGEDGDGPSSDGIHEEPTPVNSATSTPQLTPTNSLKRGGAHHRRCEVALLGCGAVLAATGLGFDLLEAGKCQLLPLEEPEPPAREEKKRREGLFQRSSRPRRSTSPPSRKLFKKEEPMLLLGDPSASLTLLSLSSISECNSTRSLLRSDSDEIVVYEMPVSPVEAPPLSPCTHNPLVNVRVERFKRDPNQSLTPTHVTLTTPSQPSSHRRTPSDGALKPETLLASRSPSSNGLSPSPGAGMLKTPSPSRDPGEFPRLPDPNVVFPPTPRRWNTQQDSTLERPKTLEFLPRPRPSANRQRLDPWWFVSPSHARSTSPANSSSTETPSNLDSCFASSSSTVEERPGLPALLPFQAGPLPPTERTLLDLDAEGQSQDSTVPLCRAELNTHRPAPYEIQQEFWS

Cc1cccc(C)c1NC(=O)N1C/C=C\COc2cccc(c2)Nc2cc1ncn2 [Compound I-1]
remaining activity at 0.1 µM (MARK4; [1]): 103% | remaining activity at 1 µM (MARK4; [2]): 81% | remaining activity at 0.1 µM (ZAP70; [1]): 90% | remaining activity at 1 µM (ZAP70; [2]): 98% | remaining activity at 0.1 µM (TAO1; [1]): 72% | remaining activity at 1 µM (TAO1; [2]): 34% | remaining activity at 0.1 µM (TBK1; [1]): 109% | remaining activity at 1 µM (TBK1; [2]): 83% | remaining activity at 0.1 µM (SGK1; [1]): 96% | remaining activity at 1 µM (SGK1; [2]): 100% | remaining activity at 0.1 µM (EPH-B2; [1]): 54% | remaining activity at 1 µM (EPH-B2; [2]): 1% | remaining activity at 0.1 µM (TLK1; [1]): 112% | remaining activity at 1 µM (TLK1; [2]): 92% | remaining activity at 0.1 µM (PAK2; [1]): 100% | remaining activity at 1 µM (PAK2; [2]): 77% | remaining activity at 0.1 µM (MLK1; [1]): 60% | remaining activity at 1 µM (MLK1; [2]): 17% | remaining activity at 0.1 µM (MKK6; [1]): 101% | remaining activity at 1 µM (MKK6; [2]): 93% | remaining activity at 0.1 µM (PDK1; [1]): 103% | remaining activity at 1 µM (PDK1; [2]): 87% | remaining activity at 0.1 µM (PKCa; [1]): 101% | remaining activity at 1 µM (PKCa; [2]): 91% | remaining activity at 0.1 µM (SYK; [1]): 100% | remaining activity at 1 µM (SYK; [2]): 91% | remaining activity at 0.1 µM (EPH-A4; [1]): 8% | remaining activity at 1 µM (EPH-A4; [2]): 3% | remaining activity at 0.1 µM (TAK1; [1]): 105% | remaining activity at 1 µM (TAK1; [2]): 81% | remaining activity at 0.1 µM (TSSK1; [1]): 83% | remaining activity at 1 µM (TSSK1; [2]): 85% | remaining activity at 0.1 µM (YES1; [1]): 10% | remaining activity at 1 µM (YES1; [2]): 15%
